pIC50: −log10 of the molar value. Structures can show the parent of a compound that is named as a salt. Where two headings read alike, the source gives them in different places. Marks after values point to notes of the source that are not given here.
Key:
MAO-B = target: T1, MAO-B (Rattus norvegicus, UniProt P19643); assay: Inhibition of MAO activity in vitro, PEA as substrate; type: biochemical; parameters: The MAO enzyme source was a homogenate of rat brain in 0.3M sucrose; from tissue; host or cells: rat brain homogenate, 600 g supernatant; details: MAO-B Inhibition In vitro IC50, rat brain homogenate
T1 sequence (P19643 1-520): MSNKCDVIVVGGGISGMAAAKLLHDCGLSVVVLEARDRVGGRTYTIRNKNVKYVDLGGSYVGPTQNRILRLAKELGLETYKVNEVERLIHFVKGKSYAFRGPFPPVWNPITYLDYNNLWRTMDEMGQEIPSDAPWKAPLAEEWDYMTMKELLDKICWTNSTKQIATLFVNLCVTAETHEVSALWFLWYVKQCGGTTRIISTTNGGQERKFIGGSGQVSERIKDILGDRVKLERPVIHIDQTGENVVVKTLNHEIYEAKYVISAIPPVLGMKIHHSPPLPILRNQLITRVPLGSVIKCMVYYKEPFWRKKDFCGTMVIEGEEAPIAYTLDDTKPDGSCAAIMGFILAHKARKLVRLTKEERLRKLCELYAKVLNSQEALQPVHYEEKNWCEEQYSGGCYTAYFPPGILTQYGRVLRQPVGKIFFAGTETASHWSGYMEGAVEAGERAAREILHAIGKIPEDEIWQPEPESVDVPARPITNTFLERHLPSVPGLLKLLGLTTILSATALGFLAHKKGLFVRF
Description: (§1) Substrate concentrations used were 50 μM (PEA) and 1 mM (5-HT).

whole brain AChE = target: T2, whole brain AChE (Mus musculus, UniProt P21836); details: for AChE Inhibition Ex vivo ED50 (AC): mice, whole brain, at peak of activity; for AChE Inhibition Time to peak activity t / AChE Inhibition Time to return to 50% of peak t: mouse, in vivo
T2 sequence (P21836 32-614): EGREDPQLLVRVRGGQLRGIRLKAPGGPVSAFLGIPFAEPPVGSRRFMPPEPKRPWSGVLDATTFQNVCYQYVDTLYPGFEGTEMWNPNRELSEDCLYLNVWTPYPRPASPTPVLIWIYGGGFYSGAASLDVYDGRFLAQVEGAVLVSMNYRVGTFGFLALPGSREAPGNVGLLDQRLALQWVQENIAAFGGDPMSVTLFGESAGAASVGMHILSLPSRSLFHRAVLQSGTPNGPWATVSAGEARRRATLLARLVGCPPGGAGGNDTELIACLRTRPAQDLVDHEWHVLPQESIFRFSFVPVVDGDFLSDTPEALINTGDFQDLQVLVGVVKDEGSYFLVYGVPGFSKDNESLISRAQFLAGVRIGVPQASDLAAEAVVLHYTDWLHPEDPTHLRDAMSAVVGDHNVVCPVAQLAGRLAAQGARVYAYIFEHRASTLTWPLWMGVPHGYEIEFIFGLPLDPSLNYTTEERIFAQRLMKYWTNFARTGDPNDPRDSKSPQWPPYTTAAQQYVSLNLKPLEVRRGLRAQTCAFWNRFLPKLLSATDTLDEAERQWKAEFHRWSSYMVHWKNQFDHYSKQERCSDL

[1] = system: Closed Head Injury (CHI) in Mice; assay: Closed Head Injury (CHI) in mice: motor function, neurological severity score (NSS); type: in vivo; details: difference from NSS at 1 hr
[2] = system: Middle Cerebral Artery Occlusion (MCA-O) in Male Wistar Rats
Description: Male Wistar rats (Olac England-Jerusalem) 300-400 g each were anesthetized with a solution of Equitesine administered i.p. at a dose of 3 ml/kg. Equitesine consists of 13.5 ml sodium pentothal solution (60 mg/ml), 3.5 g chloral hydrate, 1.75 g MgSO4, 33 ml propylene glycol, 8.3 ml absolute alcohol, made up to 83 ml with distilled water.
The dura matter was opened carefully using a 27 gauge needle The MCA was permanently occluded by microbipolar coagulation at low power setting, beginning 2-3 mm medial to the olfactory tract between its cortical branch to the rhinal cortex and the laterate striate arteries. After coagulation, the MCA was severed with microscissors and divided to ensure complete occlusion. Following this, the temporalis muscle was sutured and laid over the craniectomy site. The skin was closed with a running 3-0 silk suture. A sham craniectomy operation was performed on a parallel group of rats, but without cauterization of the MCA.
At 24 and 48 hours post surgery a neurological score was taken in order to assess the severity of the injury in the drug-treated rats with respect to their untreated controls.
Drugs were administered as an s.c. injection, according to the following schedule:
The scale runs from 0 (fully normal rats) to 13 (fully incapacitated rats). Most parameters are rated as either 0 (normal), or 1 (incapacitated) others are graded. […]

[3] = system: Middle Cerebral Artery Occlusion (MCA-O) in Male Wistar Rats; details: rat, in vivo
MAO-A = target: T3, MAO-A (Rattus norvegicus, UniProt P21396); assay: in vivo; type: in vivo, rats; parameters: animals were sacrificed and MAO levels determined in the brain, liver and intestines; from tissue; host or cells: rat brain, liver and intestine; details: for % MAO-A inhibition: HCl
T3 sequence (P21396 1-526): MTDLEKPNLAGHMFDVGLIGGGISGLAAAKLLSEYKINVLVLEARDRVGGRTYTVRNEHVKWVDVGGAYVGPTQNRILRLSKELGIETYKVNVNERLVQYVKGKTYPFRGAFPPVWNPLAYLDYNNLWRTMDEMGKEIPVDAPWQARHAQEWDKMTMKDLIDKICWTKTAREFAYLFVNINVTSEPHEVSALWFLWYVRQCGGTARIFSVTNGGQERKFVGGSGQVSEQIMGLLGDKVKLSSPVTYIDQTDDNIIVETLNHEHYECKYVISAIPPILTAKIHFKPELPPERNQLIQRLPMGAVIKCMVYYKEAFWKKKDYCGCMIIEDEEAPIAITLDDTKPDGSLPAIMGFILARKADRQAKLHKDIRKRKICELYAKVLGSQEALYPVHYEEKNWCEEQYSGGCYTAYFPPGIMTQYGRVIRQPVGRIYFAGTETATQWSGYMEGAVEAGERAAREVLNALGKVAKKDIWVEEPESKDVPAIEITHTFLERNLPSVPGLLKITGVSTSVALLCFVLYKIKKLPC
Description: as §1
Male Sabra mice, weighing 45-50 g were injected with test compound solutions (prepared in 0.9% saline). Each dose was administered to two or three mice. The mice were sacrificed two hours after drug administration or at a time corresponding to the peak AChE inhibition time (see Table 11). The brain and liver were rapidly dissected and stored in appropriate vials on ice. The tissues were weighed, diluted to ½ in sucrose 0.3M and stored at −20° C. before performance of the MAO assay described above. The results given in Table 11 relate to measurements made on brain tissue only.
Experiments were done in Sprague Dawley male rats. […] At the end of this period animals were sacrificed and MAO levels determined in the brain, liver and intestines.

[4] = target: T4, Human erythrocyte acetylcholinesterase (Homo sapiens, UniProt P22303); assay: biochemical; type: biochemical; details: AChE Inhibition In vitro IC50
T4 construct: Human erythrocyte acetylcholinesterase (type XIII, Sigma Israel); purchased Sigma Israel type XIII; host or cells: human erythrocytes
In short: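 Erythrocyte AChE (type XIII) from 1 U/ml stock containing 1% Triton and 0.05% BSA in phosphate buffer pH 8; 0.05 U enzyme preincubated with 3-5 compound concentrations, triplicate, 15 to 60 minutes at 37° C. Percent inhibition calculated against drug-free enzyme.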

[5] = 15 mg/kg sc once 15 min after CHI
[6] = 6.5 mg/kg sc once 15 min after CHI
[7] = 46 mg/kg administered 60 min before CHl
[8] = 46 mg/kg sc once 15 min after CHI

T4 sequence (P22303 32-617 isoform P22303-2 limits assumed): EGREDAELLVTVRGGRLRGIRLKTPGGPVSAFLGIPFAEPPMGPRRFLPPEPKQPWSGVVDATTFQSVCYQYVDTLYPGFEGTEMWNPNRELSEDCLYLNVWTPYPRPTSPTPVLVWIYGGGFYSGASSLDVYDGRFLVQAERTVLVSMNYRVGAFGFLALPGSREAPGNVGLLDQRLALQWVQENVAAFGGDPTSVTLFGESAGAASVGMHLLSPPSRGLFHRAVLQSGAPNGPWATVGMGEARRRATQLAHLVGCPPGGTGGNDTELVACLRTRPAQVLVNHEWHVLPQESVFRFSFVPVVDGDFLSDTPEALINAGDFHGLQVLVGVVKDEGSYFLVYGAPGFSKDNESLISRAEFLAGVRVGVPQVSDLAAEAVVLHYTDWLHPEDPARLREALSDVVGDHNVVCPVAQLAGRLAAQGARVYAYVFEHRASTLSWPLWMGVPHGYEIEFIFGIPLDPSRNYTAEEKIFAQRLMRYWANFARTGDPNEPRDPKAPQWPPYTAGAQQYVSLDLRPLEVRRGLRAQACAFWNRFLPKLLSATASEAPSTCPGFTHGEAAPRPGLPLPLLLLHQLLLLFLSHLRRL

| Structure (SMILES) | pIC50 (MAO-B) | AChE Inhibition Ex vivo ED50 (AC) (whole brain AChE) | AChE Inhibition Time to peak activity t (whole brain AChE) | AChE Inhibition Time to return to 50% of peak t (whole brain AChE) | Volume infarction Mean ± SD [3] | pIC50 [4] | also measured |
| --- | --- | --- | --- | --- | --- | --- | --- |
| CN(C)C(=O)Oc1ccc2c(c1)C(N)CC2 (centres unmarked) [Compound 1] | < 3.00 | 5.0 µmol/kg | 30 min | >120 min |  |  |  |
| CCN(C)C(=O)Oc1ccc2c(c1)C(NC)CC2 (centres unmarked) [Compound 10] |  | 34.7 µmol/kg | 60 to 90 min | >180 min |  |  | ΔNSS, 24 hr post-CHl [1, 5]: 5.36 ± 0.39; ΔNSS, 7 days post-CHl [1, 5]: 6.64 ± 0.41^m; ΔNSS, 14 days post-CHl [1, 5]: 6.73 ± 0.52 |
| C#CCNC1CCc2ccc(OC(=O)N(C)C)cc21 (centres unmarked) [Compound 24, 6-(N,N-Dimethylcarbamyloxy)-N-propargyl aminoindan mesylate] | 3.12 |  |  |  | 152 ± 45 mm* |  | ΔNSS (difference measured at 24 hours and 48 hours) ([2]; s.c. […] 15 minutes prior to MCA-O and 6.5 mg/kg 2 hours post MCA-O): 1.625; ΔNSS, 24 hr post-CHl [1, 6]: 6.31 ± 0.23^m; ΔNSS, 7 days post-CHl [1, 6]: 8.67 ± 0.41^m; ΔNSS, 14 days post-CHl [1, 6]: 9.67 ± 0.66^m; inhibition at 10 mg/kg (MAO-A; po, read-out: % MAO-A inhibition, Brain, po, 10 mg/kg daily for 14 days, rats): 0%; inhibition at 10 mg/kg (MAO-A; po, read-out: % MAO-A inhibition, Intestine, po, 10 mg/kg daily for 14 days, rats): 30%; inhibition at 10 mg/kg (MAO-A; po, read-out: % MAO-A inhibition, Liver, po, 10 mg/kg daily for 14 days, rats): 10%; inhibition at 6 mg/kg (MAO-A; sc, read-out: % MAO-A inhibition, Brain, sc, 6 mg/kg daily for 14 days, rats): 30%; inhibition at 6 mg/kg (MAO-A; sc, read-out: % MAO-A inhibition, Intestine, sc, 6 mg/kg daily for 14 days, rats): 0%; inhibition at 6 mg/kg (MAO-A; sc, read-out: % MAO-A inhibition, Liver, sc, 6 mg/kg daily for 14 days, rats): 0% |
| C#CCNC1CCc2ccc(OC(=O)N(C)CC)cc21 (centres unmarked) [Compound 25, 6-(N-Me, N-Etcarbamyloxy) N-propargyl aminoindan, HCl] |  | 140.0 µmol/kg | 60 min | >180 min | 189 ± 54 mm* | 4.28 | ΔNSS (difference measured at 24 hours and 48 hours) ([2]; s.c. 43 mg/kg 90 minutes prior to MCA-O and 30 mg/kg 3 hours post MCA-O): 1.78; ΔNSS, 24 hr post-CHl [1, 7]: 4.90 ± 0.43; ΔNSS, 7 days post-CHl [1, 7]: 7.70 ± 0.33^m; ΔNSS, 14 days post-CHl [1, 7]: 8.80 ± 0.33^m; ΔNSS, 24 hr post-CHl [1, 8]: 5.00 ± 0.42; ΔNSS, 7 days post-CHl [1, 8]: 7.42 ± 0.62^m; ΔNSS, 14 days post-CHl [1, 8]: 9.01 ± 0.69^m; selectivity of MAO inhibition, brain versus periphery (liver, intestines) (MAO-A; in vivo): selectivity in inhibiting MAO enzyme sub-types in the brain in preference to the periphery; % MAO-A inhibition (MAO-A; in vivo, po, 50 mg/kg): 25%; % MAO-A inhibition (MAO-A; in vivo, sc, 25 mg/kg): 0% |
| C#CCNC1CCc2cccc(OC(=O)N(C)C)c21 (centres unmarked) [Compound 27] | < 3.00 | 30 µmol/kg | 15 min | >60 min |  | 5.24 |  |
| C#CCN(C)C1CCc2ccc(OC(=O)N(C)C)cc21 (centres unmarked) [Compound 29] | 4.40 | 53.7 µmol/kg | 15 min | >60 min |  | 5.07 |  |
